{"source": "ChEMBL document CHEMBL5465560", "about": "“Selectivity Literature for EUbOPEN Chemogenomic Library” (2024)", "key": {"[1]": {"target": "TRAF2 and NCK-interacting protein kinase (Homo sapiens) (UniProt Q9UKE5)", "sequence (Q9UKE5 whole entry, looked up)": "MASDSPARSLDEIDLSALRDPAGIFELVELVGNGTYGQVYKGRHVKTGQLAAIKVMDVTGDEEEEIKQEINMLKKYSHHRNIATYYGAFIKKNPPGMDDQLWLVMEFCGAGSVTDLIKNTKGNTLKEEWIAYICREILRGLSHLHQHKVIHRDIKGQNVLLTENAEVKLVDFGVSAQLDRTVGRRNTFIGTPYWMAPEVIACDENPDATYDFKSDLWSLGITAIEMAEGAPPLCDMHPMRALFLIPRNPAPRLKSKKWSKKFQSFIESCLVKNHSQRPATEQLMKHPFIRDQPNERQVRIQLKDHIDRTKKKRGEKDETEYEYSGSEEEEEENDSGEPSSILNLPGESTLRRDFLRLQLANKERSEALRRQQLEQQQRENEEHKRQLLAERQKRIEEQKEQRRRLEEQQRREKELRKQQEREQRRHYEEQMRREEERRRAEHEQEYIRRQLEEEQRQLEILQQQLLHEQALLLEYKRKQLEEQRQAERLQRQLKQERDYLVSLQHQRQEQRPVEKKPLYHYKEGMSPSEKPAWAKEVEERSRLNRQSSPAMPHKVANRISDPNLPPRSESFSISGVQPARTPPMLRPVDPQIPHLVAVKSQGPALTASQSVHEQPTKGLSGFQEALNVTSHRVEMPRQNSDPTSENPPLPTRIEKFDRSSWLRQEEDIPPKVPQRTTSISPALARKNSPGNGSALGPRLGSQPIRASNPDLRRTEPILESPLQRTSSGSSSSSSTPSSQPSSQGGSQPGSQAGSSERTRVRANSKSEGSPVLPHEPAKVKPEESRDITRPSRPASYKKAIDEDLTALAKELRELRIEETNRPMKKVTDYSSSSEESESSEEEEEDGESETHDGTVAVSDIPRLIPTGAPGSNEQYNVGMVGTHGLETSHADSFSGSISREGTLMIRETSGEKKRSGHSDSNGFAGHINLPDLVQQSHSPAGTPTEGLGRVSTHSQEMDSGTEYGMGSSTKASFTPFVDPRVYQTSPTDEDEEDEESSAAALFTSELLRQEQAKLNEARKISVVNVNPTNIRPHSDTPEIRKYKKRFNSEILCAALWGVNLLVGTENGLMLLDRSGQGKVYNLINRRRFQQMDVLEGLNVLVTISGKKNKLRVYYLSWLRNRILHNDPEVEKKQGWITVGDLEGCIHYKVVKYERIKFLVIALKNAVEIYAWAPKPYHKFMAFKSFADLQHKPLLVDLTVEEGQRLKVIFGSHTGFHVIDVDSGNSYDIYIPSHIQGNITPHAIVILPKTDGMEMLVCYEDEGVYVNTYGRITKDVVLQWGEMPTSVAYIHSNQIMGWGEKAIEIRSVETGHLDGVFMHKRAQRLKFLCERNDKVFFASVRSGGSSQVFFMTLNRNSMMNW", "assay": "Selectivity interaction (KinomeScan (DiscoverX)) EUB0000595a TNIK", "details": "at 10 µM"}, "[2]": {"target": "T1, Serine/threonine-protein kinase TAO2 (Homo sapiens) (UniProt Q9UL54)", "T1 sequence (whole entry)": "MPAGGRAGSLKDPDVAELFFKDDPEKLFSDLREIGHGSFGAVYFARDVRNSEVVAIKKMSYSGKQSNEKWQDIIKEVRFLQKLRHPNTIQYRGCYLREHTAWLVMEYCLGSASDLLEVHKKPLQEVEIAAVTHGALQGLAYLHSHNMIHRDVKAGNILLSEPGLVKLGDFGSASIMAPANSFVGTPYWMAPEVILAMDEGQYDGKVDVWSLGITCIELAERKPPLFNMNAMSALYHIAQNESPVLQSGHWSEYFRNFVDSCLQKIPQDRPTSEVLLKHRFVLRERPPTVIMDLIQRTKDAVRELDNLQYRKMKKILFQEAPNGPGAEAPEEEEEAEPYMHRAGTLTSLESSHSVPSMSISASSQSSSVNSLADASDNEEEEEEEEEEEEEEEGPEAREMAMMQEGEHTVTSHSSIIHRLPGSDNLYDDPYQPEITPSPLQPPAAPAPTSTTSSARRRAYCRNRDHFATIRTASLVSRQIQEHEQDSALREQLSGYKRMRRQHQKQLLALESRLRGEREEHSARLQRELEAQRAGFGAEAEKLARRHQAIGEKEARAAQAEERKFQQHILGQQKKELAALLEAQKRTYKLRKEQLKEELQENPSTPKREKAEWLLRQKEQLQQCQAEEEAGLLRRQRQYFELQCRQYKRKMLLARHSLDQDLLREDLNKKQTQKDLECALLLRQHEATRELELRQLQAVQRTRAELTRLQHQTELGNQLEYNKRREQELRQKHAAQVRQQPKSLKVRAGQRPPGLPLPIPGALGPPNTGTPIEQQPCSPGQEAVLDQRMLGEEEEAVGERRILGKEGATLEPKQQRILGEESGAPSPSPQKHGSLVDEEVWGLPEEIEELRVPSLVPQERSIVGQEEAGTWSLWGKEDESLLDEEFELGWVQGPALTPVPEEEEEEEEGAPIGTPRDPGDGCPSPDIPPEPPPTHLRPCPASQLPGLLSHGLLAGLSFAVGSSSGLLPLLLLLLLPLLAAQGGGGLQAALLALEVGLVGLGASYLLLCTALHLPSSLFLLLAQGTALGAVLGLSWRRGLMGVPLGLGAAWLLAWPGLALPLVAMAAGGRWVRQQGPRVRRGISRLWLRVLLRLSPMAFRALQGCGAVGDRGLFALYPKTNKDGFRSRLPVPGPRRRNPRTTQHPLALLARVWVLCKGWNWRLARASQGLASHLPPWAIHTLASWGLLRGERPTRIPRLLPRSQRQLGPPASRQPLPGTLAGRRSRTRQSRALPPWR", "assay": "Selectivity interaction (KinomeScan (DiscoverX)) EUB0001079a TAOK2", "details": "at 1 µM"}, "[3]": {"target": "Phosphatidylinositol 4-phosphate 5-kinase type-1 alpha (Homo sapiens) (UniProt Q99755)", "sequence (Q99755 whole entry)": "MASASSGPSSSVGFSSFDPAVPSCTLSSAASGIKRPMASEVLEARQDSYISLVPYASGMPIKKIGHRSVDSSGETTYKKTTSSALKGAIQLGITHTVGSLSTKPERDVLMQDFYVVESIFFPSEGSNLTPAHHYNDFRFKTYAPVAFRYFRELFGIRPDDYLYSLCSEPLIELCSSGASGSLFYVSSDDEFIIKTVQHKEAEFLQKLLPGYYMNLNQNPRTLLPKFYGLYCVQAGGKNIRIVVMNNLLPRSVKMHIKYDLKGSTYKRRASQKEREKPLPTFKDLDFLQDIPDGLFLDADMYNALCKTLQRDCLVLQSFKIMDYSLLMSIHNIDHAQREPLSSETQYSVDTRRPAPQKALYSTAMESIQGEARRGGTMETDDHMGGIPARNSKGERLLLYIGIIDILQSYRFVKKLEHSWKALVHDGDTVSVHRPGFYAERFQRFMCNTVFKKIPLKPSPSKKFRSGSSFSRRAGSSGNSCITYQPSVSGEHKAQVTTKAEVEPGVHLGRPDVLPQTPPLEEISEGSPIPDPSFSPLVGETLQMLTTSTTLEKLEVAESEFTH", "assay": "Selectivity interaction (KinomeScan (DiscoverX)) EUB0001079a PIP5K1A", "details": "at 1 µM"}, "[4]": {"target": "Protein kinase C beta type (Homo sapiens, UniProt P05771)", "assay": "Selectivity interaction (Kinase panel (Z-LYTE Assay)) EUB0001632a PRKCB", "details": "at 10 µM"}, "[5]": {"target": "Serine/threonine-protein kinase PAK 1 (Homo sapiens) (UniProt Q13153)", "sequence (Q13153 whole entry)": "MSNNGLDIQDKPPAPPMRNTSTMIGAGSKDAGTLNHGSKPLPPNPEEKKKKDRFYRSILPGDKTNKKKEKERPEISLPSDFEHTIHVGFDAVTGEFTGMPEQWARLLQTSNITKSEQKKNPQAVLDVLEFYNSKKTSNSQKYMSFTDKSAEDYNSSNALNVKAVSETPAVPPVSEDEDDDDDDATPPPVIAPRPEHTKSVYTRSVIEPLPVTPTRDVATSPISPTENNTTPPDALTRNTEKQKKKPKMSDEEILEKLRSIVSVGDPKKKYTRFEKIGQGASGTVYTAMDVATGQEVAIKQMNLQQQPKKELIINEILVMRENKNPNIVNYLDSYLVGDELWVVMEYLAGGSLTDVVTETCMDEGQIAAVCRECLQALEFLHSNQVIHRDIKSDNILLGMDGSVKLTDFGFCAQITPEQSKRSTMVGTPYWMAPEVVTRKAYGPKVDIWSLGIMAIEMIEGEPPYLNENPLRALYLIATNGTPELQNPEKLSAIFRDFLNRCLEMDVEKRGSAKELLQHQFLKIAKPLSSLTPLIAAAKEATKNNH", "details": "at 10 µM"}, "[6]": {"target": "Macrophage colony-stimulating factor 1 receptor (Homo sapiens) (UniProt P07333)", "sequence (P07333 whole entry)": "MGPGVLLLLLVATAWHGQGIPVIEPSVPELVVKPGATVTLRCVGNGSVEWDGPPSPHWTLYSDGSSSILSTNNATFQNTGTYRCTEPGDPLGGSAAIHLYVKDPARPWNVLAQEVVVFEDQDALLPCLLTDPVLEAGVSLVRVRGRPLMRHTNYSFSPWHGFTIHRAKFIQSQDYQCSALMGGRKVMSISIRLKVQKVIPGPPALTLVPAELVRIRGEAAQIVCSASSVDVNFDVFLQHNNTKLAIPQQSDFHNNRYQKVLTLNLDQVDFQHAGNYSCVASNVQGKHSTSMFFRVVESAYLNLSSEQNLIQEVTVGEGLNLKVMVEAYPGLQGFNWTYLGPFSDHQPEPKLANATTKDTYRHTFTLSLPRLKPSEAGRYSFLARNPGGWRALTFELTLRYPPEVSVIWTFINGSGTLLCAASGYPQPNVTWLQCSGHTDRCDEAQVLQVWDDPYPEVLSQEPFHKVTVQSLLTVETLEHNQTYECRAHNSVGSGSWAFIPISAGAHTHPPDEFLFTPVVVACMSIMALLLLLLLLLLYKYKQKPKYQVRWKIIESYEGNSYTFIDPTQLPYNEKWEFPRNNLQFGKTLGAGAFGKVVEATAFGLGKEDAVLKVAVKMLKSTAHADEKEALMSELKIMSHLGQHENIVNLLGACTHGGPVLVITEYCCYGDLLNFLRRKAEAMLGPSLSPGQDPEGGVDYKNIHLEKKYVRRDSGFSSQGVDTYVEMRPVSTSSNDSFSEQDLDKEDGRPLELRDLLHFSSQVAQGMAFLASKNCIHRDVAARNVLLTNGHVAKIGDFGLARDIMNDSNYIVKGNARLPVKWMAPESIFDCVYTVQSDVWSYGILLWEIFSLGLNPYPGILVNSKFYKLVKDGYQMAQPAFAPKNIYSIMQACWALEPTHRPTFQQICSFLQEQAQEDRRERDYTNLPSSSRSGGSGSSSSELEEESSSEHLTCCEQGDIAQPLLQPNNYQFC", "assay": "Selectivity interaction (Upstate Kinase Profiler service (Millipore)) EUB0000056c CSF1R", "details": "at 1 µM"}, "[7]": {"target": "Alpha-2A adrenergic receptor (Homo sapiens, UniProt P08913)", "sequence (P08913 whole entry)": "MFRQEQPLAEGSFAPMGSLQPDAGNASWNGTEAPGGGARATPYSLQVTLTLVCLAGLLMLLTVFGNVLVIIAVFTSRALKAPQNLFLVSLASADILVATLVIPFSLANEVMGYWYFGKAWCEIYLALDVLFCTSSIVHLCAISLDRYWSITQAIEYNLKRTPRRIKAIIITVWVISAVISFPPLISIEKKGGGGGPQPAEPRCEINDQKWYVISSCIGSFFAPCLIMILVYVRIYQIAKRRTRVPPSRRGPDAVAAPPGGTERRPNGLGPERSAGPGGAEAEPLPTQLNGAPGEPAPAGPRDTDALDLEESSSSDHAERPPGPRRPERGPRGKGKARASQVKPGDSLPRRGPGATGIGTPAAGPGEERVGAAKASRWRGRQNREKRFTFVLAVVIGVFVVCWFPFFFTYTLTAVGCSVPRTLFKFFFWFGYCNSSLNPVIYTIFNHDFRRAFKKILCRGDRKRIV", "assay": "Selectivity interaction (Alpha2A calcium flux assay ) EUB0000877a ADRA2A"}, "[8]": {"target": "Mitogen-activated protein kinase 1 (Homo sapiens, UniProt P28482)", "sequence (P28482 whole entry)": "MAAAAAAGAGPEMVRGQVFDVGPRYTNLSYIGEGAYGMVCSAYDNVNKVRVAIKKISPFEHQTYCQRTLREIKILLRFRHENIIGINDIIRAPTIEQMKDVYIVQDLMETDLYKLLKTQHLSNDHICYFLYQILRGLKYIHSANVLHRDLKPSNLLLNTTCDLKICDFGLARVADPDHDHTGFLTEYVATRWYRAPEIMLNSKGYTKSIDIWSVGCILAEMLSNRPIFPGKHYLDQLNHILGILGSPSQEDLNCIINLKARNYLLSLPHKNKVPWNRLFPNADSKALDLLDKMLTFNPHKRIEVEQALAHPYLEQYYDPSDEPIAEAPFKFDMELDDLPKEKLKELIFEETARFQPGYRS", "assay": "Selectivity interaction (ProQinase) EUB0000171b MAPK1"}, "[9]": {"target": "T2, Tyrosine-protein kinase JAK3 (Homo sapiens) (UniProt P52333)", "T2 sequence (whole entry)": "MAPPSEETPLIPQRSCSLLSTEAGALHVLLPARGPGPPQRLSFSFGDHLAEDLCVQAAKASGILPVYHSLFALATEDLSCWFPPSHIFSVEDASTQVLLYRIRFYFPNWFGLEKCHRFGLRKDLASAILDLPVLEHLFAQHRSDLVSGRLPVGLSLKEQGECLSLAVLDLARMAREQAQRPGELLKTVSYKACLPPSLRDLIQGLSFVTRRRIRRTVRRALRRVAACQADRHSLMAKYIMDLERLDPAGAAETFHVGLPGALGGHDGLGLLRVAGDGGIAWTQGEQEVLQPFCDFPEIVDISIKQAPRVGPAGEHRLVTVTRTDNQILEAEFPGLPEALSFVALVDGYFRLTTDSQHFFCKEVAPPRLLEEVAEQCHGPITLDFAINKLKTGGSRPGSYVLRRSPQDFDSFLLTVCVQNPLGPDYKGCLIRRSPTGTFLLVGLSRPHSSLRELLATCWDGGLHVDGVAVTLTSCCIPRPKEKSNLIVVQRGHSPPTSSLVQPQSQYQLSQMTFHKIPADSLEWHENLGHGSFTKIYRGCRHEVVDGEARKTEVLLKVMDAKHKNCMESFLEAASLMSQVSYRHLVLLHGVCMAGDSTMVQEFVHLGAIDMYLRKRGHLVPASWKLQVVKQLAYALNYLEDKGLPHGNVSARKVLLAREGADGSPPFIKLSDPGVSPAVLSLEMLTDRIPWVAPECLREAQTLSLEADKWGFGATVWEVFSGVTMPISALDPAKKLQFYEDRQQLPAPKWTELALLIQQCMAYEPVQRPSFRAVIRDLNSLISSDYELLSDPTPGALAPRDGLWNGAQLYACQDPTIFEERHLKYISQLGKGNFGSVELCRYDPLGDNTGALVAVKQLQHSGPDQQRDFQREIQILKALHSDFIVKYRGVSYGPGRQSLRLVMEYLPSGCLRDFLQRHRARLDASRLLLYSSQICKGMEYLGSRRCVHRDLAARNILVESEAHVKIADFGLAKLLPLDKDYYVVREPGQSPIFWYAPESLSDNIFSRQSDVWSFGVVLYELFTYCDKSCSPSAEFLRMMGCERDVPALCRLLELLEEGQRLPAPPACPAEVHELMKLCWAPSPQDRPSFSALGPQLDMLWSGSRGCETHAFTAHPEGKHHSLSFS", "assay": "Selectivity interaction (Kinase panel (literature)) EUB0001199aCl JAK3", "details": "at 1 µM"}, "[10]": {"target": "Wee1-like protein kinase (Homo sapiens) (UniProt P30291)", "sequence (P30291 whole entry, looked up)": "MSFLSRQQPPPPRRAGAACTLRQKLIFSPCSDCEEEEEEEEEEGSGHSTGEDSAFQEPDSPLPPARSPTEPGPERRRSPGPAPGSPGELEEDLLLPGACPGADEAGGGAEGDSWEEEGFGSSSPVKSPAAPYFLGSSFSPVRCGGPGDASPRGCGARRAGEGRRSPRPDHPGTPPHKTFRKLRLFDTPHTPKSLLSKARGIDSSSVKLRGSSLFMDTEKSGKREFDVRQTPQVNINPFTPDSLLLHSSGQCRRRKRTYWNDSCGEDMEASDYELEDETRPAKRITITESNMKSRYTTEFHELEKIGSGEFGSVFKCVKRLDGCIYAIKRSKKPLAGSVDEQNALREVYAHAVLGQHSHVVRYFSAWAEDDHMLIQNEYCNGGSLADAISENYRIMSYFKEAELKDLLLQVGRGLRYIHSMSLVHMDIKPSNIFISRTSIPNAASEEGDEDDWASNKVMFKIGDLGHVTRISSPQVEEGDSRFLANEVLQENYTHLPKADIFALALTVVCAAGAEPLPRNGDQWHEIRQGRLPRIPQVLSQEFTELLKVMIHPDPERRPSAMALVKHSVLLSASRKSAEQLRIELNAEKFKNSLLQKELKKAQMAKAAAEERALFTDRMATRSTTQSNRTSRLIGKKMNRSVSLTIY", "details": "at 10 µM"}}, "data": [{"smiles": "COCC(=O)NC/C=C/c1ccc2ncnc(Nc3ccc(Oc4ccc(C)nc4)c(C)c3)c2c1", "note": "[CP-724714]", "values": [{"measurement": "% of control", "setting": "[1]", "result": 89, "unit": "%"}]}, {"smiles": "Nc1cnc(N2CCc3cc(S(=O)(=O)Nc4c(F)cc(Cl)cc4F)cc(N4CCCC4=O)c32)nc1", "note": "[TP-020n]", "values": [{"measurement": "% of control", "setting": "[2]", "result": 78, "unit": "%"}, {"measurement": "% of control", "setting": "[3]", "result": 100, "unit": "%"}]}, {"smiles": "Cn1cc(-n2cnc3c(NCc4nc5cc(Cl)c(Cl)cc5[nH]4)nc(N4CCOCC4)nc32)cn1", "values": [{"measurement": "% of control", "setting": "[4]", "result": 45.9, "unit": "%"}]}, {"smiles": "Cc1cc([C@@H](C)Nc2ccccc2C(=O)O)c2nc(N3CCOCC3)cc(=O)n2c1", "note": "[AZD-6482]", "values": [{"measurement": "% of control", "setting": "[5]", "result": 100, "unit": "%"}]}, {"smiles": "Cc1ccc(-c2ccc3c(ccc4sc5c(c43)NC[C@@H](C)NC5=O)n2)cn1", "values": [{"measurement": "% of inhibition", "setting": "[6]", "result": 13, "unit": "%"}]}, {"smiles": "CCC(=O)N1CC[C@H](Nc2ncnc3c2CN(c2cnc(OC)c(C(F)(F)F)c2)CC3)C1", "note": "[LENIOLISIB]", "values": [{"measurement": "IC50", "setting": "[7]", "result": "> 30", "unit": "µM"}]}, {"smiles": "C=CC(=O)Nc1cccc(C(=O)Nc2ccc(Nc3cc(-c4[nH]c(SC)nc4C)ccn3)cc2)c1", "values": [{"measurement": "% of control", "setting": "[8]; at 1 µM", "result": 96, "unit": "%"}, {"measurement": "% of control", "setting": "[8]; at 5 µM", "result": 100, "unit": "%"}]}, {"smiles": "CN1Cc2nccc(-c3cn(C)nc3-c3ccc(F)cc3)c2C1=O", "values": [{"measurement": "% of inhibition", "setting": "[9]", "result": -2, "unit": "%"}]}, {"smiles": "CCN(CC)CCCCNc1ncc2cc(-c3cc(OC)cc(OC)c3)c(NC(=O)NC(C)(C)C)nc2n1", "values": [{"measurement": "% of control", "setting": "[10]", "result": 100, "unit": "%"}]}]}
